Measured values: the NIST ThermoML archive (doi:10.1021/je5010214)

Conditions: Liquid, Vibrating tube method

CCCCO [butan-1-ol]
Conditions	mass density [kg/m3]
283.15 K, 267.6 kPa	817.937
283.15 K, 550.8 kPa	818.14
283.15 K, 878.6 kPa	818.388
283.15 K, 991.3 kPa	818.415
283.15 K, 2020.2 kPa	819.134
283.15 K, 2914.8 kPa	819.722
283.15 K, 4946.5 kPa	821.145
283.15 K, 7034.8 kPa	822.538
283.15 K, 9021.6 kPa	823.807
283.15 K, 9991.9 kPa	824.485
283.15 K, 11959 kPa	825.705
283.15 K, 15011 kPa	827.609
283.15 K, 18047 kPa	829.455
283.15 K, 20045 kPa	830.642
283.15 K, 22057 kPa	831.928
283.15 K, 25044 kPa	833.615
283.15 K, 28046 kPa	835.368
283.15 K, 30052 kPa	836.501
283.15 K, 32970 kPa	838.092
283.15 K, 32971 kPa	838.117
283.15 K, 34017 kPa	838.557
283.15 K, 34960 kPa	839.141
283.15 K, 37943 kPa	840.737
283.15 K, 40004 kPa	841.811
283.15 K, 42058 kPa	842.896
283.15 K, 44940 kPa	844.325
283.15 K, 48022 kPa	845.954
283.15 K, 49996 kPa	846.902
283.15 K, 51982 kPa	847.942
283.15 K, 54965 kPa	849.358
283.15 K, 57949 kPa	850.826
283.15 K, 59996 kPa	851.847
283.15 K, 62025 kPa	852.74
283.15 K, 64998 kPa	854.215
283.16 K, 101.2 kPa	817.825
283.16 K, 65971 kPa	854.69
288.15 K, 78.5 kPa	813.612
288.15 K, 391.3 kPa	813.84
288.15 K, 554.4 kPa	813.953
288.15 K, 882.7 kPa	814.204
288.15 K, 989.1 kPa	814.282
288.15 K, 2057.5 kPa	815.033
288.15 K, 2917.8 kPa	815.651
288.15 K, 5041.4 kPa	817.16
288.15 K, 7088.8 kPa	818.541
288.15 K, 9018.6 kPa	819.847
288.15 K, 10040 kPa	820.583
288.15 K, 12072 kPa	821.91
288.15 K, 15001 kPa	823.877
288.15 K, 17968 kPa	825.72
288.15 K, 20068 kPa	826.976
288.15 K, 20693 kPa	827.38
288.15 K, 22020 kPa	828.211
288.15 K, 25002 kPa	829.984
288.15 K, 28026 kPa	831.832
288.15 K, 30035 kPa	832.896
288.15 K, 32084 kPa	834.074
288.15 K, 33050 kPa	834.714
288.15 K, 34036 kPa	835.152
288.15 K, 35077 kPa	835.674
288.15 K, 37993 kPa	837.311
288.15 K, 40041 kPa	838.449
288.15 K, 42023 kPa	839.459
288.15 K, 44979 kPa	841.064
288.15 K, 48045 kPa	842.655
288.15 K, 50068 kPa	843.734
288.15 K, 52032 kPa	844.696
288.15 K, 55077 kPa	846.251
288.15 K, 58004 kPa	847.666
288.15 K, 59988 kPa	848.618
288.15 K, 61974 kPa	849.542
288.15 K, 64942 kPa	850.93
288.15 K, 66025 kPa	851.488
293.15 K, 91.1 kPa	810.528
293.15 K, 825.1 kPa	811.053
293.15 K, 1971.7 kPa	811.916
293.15 K, 3060.6 kPa	812.72
293.15 K, 5011 kPa	814.074
